{"source": "patent US10758534B2", "about": "(Vertex Pharmaceuticals Incorporated, priority 2014, dated 2020)", "target": "T1, F508del (Homo sapiens, UniProt P13569, DEL508-508)", "T1 construct": "expressed in transfected cells", "T1 sequence (P13569 with tags, fused parts or gaps DEL508-508)": "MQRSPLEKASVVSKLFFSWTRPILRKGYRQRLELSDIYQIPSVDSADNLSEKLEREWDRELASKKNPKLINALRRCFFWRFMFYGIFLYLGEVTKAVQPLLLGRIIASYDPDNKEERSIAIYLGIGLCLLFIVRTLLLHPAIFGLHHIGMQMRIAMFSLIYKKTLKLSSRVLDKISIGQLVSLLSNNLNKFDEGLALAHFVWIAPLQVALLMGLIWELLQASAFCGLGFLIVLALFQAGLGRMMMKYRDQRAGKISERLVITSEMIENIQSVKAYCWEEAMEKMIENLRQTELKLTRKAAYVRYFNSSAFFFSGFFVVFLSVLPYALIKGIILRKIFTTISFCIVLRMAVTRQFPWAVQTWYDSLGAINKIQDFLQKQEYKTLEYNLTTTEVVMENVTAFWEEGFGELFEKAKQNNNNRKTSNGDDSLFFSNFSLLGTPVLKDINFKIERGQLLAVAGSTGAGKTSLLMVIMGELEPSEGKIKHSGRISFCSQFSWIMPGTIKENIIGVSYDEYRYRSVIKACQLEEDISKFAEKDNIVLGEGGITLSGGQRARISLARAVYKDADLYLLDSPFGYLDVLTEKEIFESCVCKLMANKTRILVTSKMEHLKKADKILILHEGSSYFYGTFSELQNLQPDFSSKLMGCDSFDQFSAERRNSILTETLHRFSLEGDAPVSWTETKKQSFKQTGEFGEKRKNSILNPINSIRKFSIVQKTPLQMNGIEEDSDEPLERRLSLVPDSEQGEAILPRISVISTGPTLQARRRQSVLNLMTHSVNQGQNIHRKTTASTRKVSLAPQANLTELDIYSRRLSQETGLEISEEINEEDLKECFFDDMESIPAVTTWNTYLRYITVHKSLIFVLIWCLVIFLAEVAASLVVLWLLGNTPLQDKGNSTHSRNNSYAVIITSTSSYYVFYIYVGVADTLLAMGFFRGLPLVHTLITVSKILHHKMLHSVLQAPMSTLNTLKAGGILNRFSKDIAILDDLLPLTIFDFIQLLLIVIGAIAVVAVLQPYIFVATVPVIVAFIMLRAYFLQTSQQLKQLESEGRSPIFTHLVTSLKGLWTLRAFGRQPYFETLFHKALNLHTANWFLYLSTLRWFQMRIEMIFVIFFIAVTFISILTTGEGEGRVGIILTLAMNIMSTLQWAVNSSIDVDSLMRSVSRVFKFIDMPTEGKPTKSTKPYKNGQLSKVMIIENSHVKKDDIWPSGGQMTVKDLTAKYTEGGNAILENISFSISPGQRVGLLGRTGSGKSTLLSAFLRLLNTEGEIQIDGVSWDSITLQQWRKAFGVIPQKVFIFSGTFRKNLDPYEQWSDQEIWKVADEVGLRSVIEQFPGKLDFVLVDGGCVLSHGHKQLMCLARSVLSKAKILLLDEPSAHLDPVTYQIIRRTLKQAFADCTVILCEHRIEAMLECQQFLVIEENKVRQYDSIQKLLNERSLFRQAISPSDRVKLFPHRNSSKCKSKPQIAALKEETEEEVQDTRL", "assay": "Protocol 1: membrane potential optical assay (FLIPR III, voltage sensing dye), identification of potentiator compounds", "format": "cell-based", "conditions": "Table 3, compounds of Table 1", "method_in_brief": "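NIH 3T3 fibroblasts stably expressing F508del were cultured at 27° C for 24 hrs for temperature correction, then treated with compounds or DMSO and loaded with a voltage-sensing redistribution dye. Forskolin added with a Cl⁻ gradient activated the channel; membrane-potential fluorescence on FLIPR III reported increased gating.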", "data": [{"smiles": "CC(C)Oc1ccc(-c2ccc(C(=O)NS(=O)(=O)c3cccc(N)n3)c(N3CCC(OCC4CC4)CC3)n2)cn1", "note": "[Compound 884, N-[(6-amino-2-pyridyl)sulfonyl]-2-[4-(cyclopropylmethoxy)-1-piperidyl]-6-(6-isopropoxy-3-pyridyl)pyridine-3-carboxamide]", "values": [{"measurement": "EC30", "value": "++ (“++” means between 3 uM and 10 uM)"}]}, {"smiles": "Cc1cc(C)c(CN2Cc3ccc(O)cc3C2(C)C(=O)NS(=O)(=O)c2cccc(N)n2)c(C)c1", "note": "(centres unmarked) [Compound 885, N-[(6-amino-2-pyridyl)sulfonyl]-6-hydroxy-1-methyl-2-[(2,4,6-trimethylphenyl)methyl]isoindoline-1-carboxamide]", "values": [{"measurement": "EC30", "value": "++ (“++” means between 3 uM and 10 uM)"}]}, {"smiles": "Cc1cc(C)c(Oc2nc(-c3cccc(C#N)c3)ccc2C(=O)NS(=O)(=O)c2cccc(N)n2)c(C)c1", "note": "[Compound 886, N-[(6-amino-2-pyridyl)sulfonyl]-6-(3-cyanophenyl)-2-(2,4,6-trimethylphenoxy)pyridine-3-carboxamide]", "values": [{"measurement": "EC30", "value": "+++ (“+++” means <3 uM)"}]}, {"smiles": "CC(C)COc1cc(F)cc(-c2ccc(C(=O)NS(=O)(=O)c3cccc(N)n3)c(N3CCCC(C)(C)C3)n2)c1", "note": "[Compound 887, N-[(6-amino-2-pyridyl)sulfonyl]-2-(3,3-dimethyl-1-piperidyl)-6-(3-fluoro-5-isobutoxy-phenyl)pyridine-3-carboxamide]", "values": [{"measurement": "EC30", "value": "+++ (“+++” means <3 uM)"}]}, {"smiles": "COc1ccc(OC)c(-c2ccc(C(=O)NS(=O)(=O)c3ccc[nH]c3=O)c(Oc3c(C)cc(C)cc3C)n2)c1", "note": "[Compound 888, 6-(2,5-dimethoxyphenyl)-N-[(2-oxo-1H-pyridin-3-yl)sulfonyl]-2-(2,4,6-trimethylphenoxy)pyridine-3-carboxamide]", "values": [{"measurement": "EC30", "value": "++ (“++” means between 3 uM and 10 uM)"}]}, {"smiles": "CC(C)Oc1ccc(-c2ccc(C(=O)NS(=O)(=O)c3cccc(N)n3)c(N3CCC(F)(F)CC3)n2)cn1", "note": "[Compound 889, N-[(6-amino-2-pyridyl)sulfonyl]-2-(4,4-difluoro-1-piperidyl)-6-(6-isopropoxy-3-pyridyl)pyridine-3-carboxamide]", "values": [{"measurement": "EC30", "value": "++ (“++” means between 3 uM and 10 uM)"}]}, {"smiles": "CC(C)c1ccc(-c2ccc(C(=O)NS(=O)(=O)c3cccc(N)n3)c(N3C[C@H](C)CC3(C)C)n2)cc1", "note": "[Compound 890, N-[(6-amino-2-pyridyl)sulfonyl]-6-(4-isopropylphenyl)-2-[(4R)-2,2,4-trimethylpyrrolidin-1-yl]pyridine-3-carboxamide]", "values": [{"measurement": "EC30", "value": "+++ (“+++” means <3 uM)"}]}, {"smiles": "CC(C)COc1ccc(-c2ccc(C(=O)NS(=O)(=O)c3ccc[nH]c3=O)c(N3[C@H](C)CC[C@@H]3C)n2)cc1", "note": "[Compound 891, 2-[(2S,5R)-2,5-dimethylpyrrolidin-1-yl]-6-(4-isobutoxyphenyl)-N-[(2-oxo-1H-pyridin-3-yl)sulfonyl]pyridine-3-carboxamide]", "values": [{"measurement": "EC30", "value": "+++ (“+++” means <3 uM)"}]}, {"smiles": "COc1ncc(-c2ccc(C(=O)NS(=O)(=O)c3cc[nH]n3)c(Oc3ccc(C)cc3C)n2)cc1C", "note": "[Compound 892, 2-(2,4-dimethylphenoxy)-6-(6-methoxy-5-methyl-3-pyridyl)-N-(1H-pyrazol-3-ylsulfonyl)pyridine-3-carboxamide]", "values": [{"measurement": "EC30", "value": "++ (“++” means between 3 uM and 10 uM)"}]}, {"smiles": "COc1ncc(-c2ccc(C(=O)NS(=O)(=O)c3nccnc3N)c(Oc3ccc(C)cc3C)n2)cc1C", "note": "[Compound 893, N-(3-aminopyrazin-2-yl)sulfonyl-2-(2,4-dimethylphenoxy)-6-(6-methoxy-5-methyl-3-pyridyl)pyridine-3-carboxamide]", "values": [{"measurement": "EC30", "value": "+++ (“+++” means <3 uM)"}]}, {"smiles": "CC(C)COc1cc(F)cc(-c2ccc(C(=O)NS(=O)(=O)c3cccc(N)n3)c(OCC3CC3(C)C)n2)c1", "note": "(centres unmarked) [Compound 894, N-[(6-amino-2-pyridyl)sulfonyl]-2-[(2,2-dimethylcyclopropyl)methoxy]-6-(3-fluoro-5-isobutoxy-phenyl)pyridine-3-carboxamide]", "values": [{"measurement": "EC30", "value": "+++ (“+++” means <3 uM)"}]}, {"smiles": "Cc1cc(C)c(CN2Cc3ccccc3C2(C)C(=O)NS(=O)(=O)c2cccc(N)n2)c(C)c1", "note": "(centres unmarked) [Compound 895, N-[(6-amino-2-pyridyl)sulfonyl]-1-methyl-2-[(2,4,6-trimethylphenyl)methyl]isoindoline-1-carboxamide]", "values": [{"measurement": "EC30", "value": "+++ (“+++” means <3 uM)"}]}, {"smiles": "CC1CN(c2nc(-c3ccc(C(C)C)nc3)ccc2C(=O)NS(=O)(=O)c2cccc(N)n2)C(C)(C)C1", "note": "(centres unmarked) [Compound 896, N-[(6-amino-2-pyridyl)sulfonyl]-6-(6-isopropyl-3-pyridyl)-2-(2,2,4-trimethylpyrrolidin-1-yl)pyridine-3-carboxamide]", "values": [{"measurement": "EC30", "value": "+++ (“+++” means <3 uM)"}]}, {"smiles": "COc1cc(Cl)ccc1-c1ccc(C(=O)NS(=O)(=O)c2cccc(N)n2)c(Oc2c(C)cc(C)cc2C)n1", "note": "[Compound 897, N-[(6-amino-2-pyridyl)sulfonyl]-6-(4-chloro-2-methoxy-phenyl)-2-(2,4,6-trimethylphenoxy)pyridine-3-carboxamide]", "values": [{"measurement": "EC30", "value": "+++ (“+++” means <3 uM)"}]}, {"smiles": "CC(C)CN(C)c1cc(-c2ccc(C(=O)NS(=O)(=O)c3cccc(N)n3)c(N3CC(C)CC3(C)C)n2)ccn1", "note": "(centres unmarked) [Compound 898, N-[(6-amino-2-pyridyl)sulfonyl]-6-[2-[isobutyl(methyl)amino]-4-pyridyl]-2-(2,2,4-trimethylpyrrolidin-1-yl)pyridine-3-carboxamide]", "values": [{"measurement": "EC30", "value": "+++ (“+++” means <3 uM)"}]}, {"smiles": "Cc1cc(C)c(Oc2nc3c(cc2C(=O)NS(=O)(=O)c2ccc[nH]c2=O)CCCC3(C)C)c(C)c1", "note": "[Compound 899, 8,8-dimethyl-N-[(2-oxo-1H-pyridin-3-yl)sulfonyl]-2-(2,4,6-trimethylphenoxy)-6,7-dihydro-5H-quinoline-3-carboxamide]", "values": [{"measurement": "EC30", "value": "+++ (“+++” means <3 uM)"}]}, {"smiles": "CCc1ccc(-c2ccc(C(=O)NS(=O)(=O)c3cccc(N)n3)c(Oc3c(C)cc(C)cc3C)n2)cc1", "note": "[Compound 900, N-[(6-amino-2-pyridyl)sulfonyl]-6-(4-ethylphenyl)-2-(2,4,6-trimethylphenoxy)pyridine-3-carboxamide]", "values": [{"measurement": "EC30", "value": "+++ (“+++” means <3 uM)"}]}, {"smiles": "CCOc1ccc(-c2ccc(C(=O)NS(=O)(=O)c3ccc[nH]c3=O)c(Oc3c(C)cc(C)cc3C)n2)cc1F", "note": "[Compound 901, 6-(4-ethoxy-3-fluoro-phenyl)-N-[(2-oxo-1H-pyridin-3-yl)sulfonyl]-2-(2,4,6-trimethylphenoxy)pyridine-3-carboxamide]", "values": [{"measurement": "EC30", "value": "++ (“++” means between 3 uM and 10 uM)"}]}, {"smiles": "CC(C)COc1cc(-c2ccc(C(=O)NS(=O)(=O)c3ccc[nH]c3=O)c(N3[C@H](C)CC[C@@H]3C)n2)ccc1Cl", "note": "[Compound 902, 6-(4-chloro-3-isobutoxy-phenyl)-2-[(2S,5R)-2,5-dimethylpyrrolidin-1-yl]-N-[(2-oxo-1H-pyridin-3-yl)sulfonyl]pyridine-3-carboxamide]", "values": [{"measurement": "EC30", "value": "+++ (“+++” means <3 uM)"}]}, {"smiles": "CC(C)Oc1ccc(-c2ccc(C(=O)NS(=O)(=O)c3cccc(N)n3)c(N3C4CCC3CC4)n2)cn1", "note": "[Compound 903, N-[(6-amino-2-pyridyl)sulfonyl]-2-(7-azabicyclo[2.2.1]heptan-7-yl)-6-(6-isopropoxy-3-pyridyl)pyridine-3-carboxamide]", "values": [{"measurement": "EC30", "value": "++ (“++” means between 3 uM and 10 uM)"}]}, {"smiles": "CC(C)COc1cc(F)cc(-c2ccc(C(=O)NS(=O)(=O)c3ccn[nH]3)c(N3CC(C)CC3(C)C)n2)c1", "note": "(centres unmarked) [Compound 904, 6-(3-fluoro-5-isobutoxy-phenyl)-N-(1H-pyrazol-5-ylsulfonyl)-2-(2,2,4-trimethylpyrrolidin-1-yl)pyridine-3-carboxamide]", "values": [{"measurement": "EC30", "value": "+++ (“+++” means <3 uM)"}]}, {"smiles": "Cc1cc(OC(C)C)ncc1-c1ccc(C(=O)NS(=O)(=O)c2cccc(N)n2)c(N2CC(C)CC2(C)C)n1", "note": "(centres unmarked) [Compound 905, N-[(6-amino-2-pyridyl)sulfonyl]-6-(6-isopropoxy-4-methyl-3-pyridyl)-2-(2,2,4-trimethylpyrrolidin-1-yl)pyridine-3-carboxamide]", "values": [{"measurement": "EC30", "value": "+++ (“+++” means <3 uM)"}]}, {"smiles": "CC(C)COc1cc(F)cc(-c2ccc(C(=O)NS(=O)(=O)c3cccc(N)n3)c(N3CCC4CC43)n2)c1", "note": "(centres unmarked) [Compound 906, N-[(6-amino-2-pyridyl)sulfonyl]-2-(4-azabicyclo[3.1.0]hexan-4-yl)-6-(3-fluoro-5-isobutoxy-phenyl)pyridine-3-carboxamide]", "values": [{"measurement": "EC30", "value": "+++ (“+++” means <3 uM)"}]}, {"smiles": "CC(C)COc1cc(F)cc(-c2ccc(C(=O)NS(=O)(=O)c3ccn[nH]3)c(N3CCCC(C(F)(F)F)C3)n2)c1", "note": "(centres unmarked) [Compound 907, 6-(3-fluoro-5-isobutoxy-phenyl)-N-(1H-pyrazol-5-ylsulfonyl)-2-[3-(trifluoromethyl)-1-piperidyl]pyridine-3-carboxamide]", "values": [{"measurement": "EC30", "value": "+++ (“+++” means <3 uM)"}]}, {"smiles": "Cc1cc(C)c(Oc2nc(-c3cccc(O)c3)ccc2C(=O)NS(=O)(=O)c2cccc(N)n2)c(C)c1", "note": "[Compound 908, N-[(6-amino-2-pyridyl)sulfonyl]-6-(3-hydroxyphenyl)-2-(2,4,6-trimethylphenoxy)pyridine-3-carboxamide]", "values": [{"measurement": "EC30", "value": "+ (“+” means greater than 10 uM)"}]}, {"smiles": "Cc1cc(C)c(Oc2nc(-c3cccnc3OC(C)C)ccc2C(=O)NS(=O)(=O)c2cccc(N)n2)c(C)c1", "note": "[Compound 909, N-[(6-amino-2-pyridyl)sulfonyl]-6-(2-isopropoxy-3-pyridyl)-2-(2,4,6-trimethylphenoxy)pyridine-3-carboxamide]", "values": [{"measurement": "EC30", "value": "+++ (“+++” means <3 uM)"}]}, {"smiles": "CCOc1ccc(-c2ccc(C(=O)NS(=O)(=O)c3cccc(N)n3)c(N3CCC(C)CC3)n2)cc1", "note": "[Compound 910, N-[(6-amino-2-pyridyl)sulfonyl]-6-(4-ethoxyphenyl)-2-(4-methyl-1-piperidyl)pyridine-3-carboxamide]", "values": [{"measurement": "EC30", "value": "+++ (“+++” means <3 uM)"}]}, {"smiles": "Cc1cc(C)c(Oc2nc(C(C)(C)C)ccc2C(=O)NS(=O)(=O)c2ccnn2C)c(C)c1", "note": "[Compound 911, 6-tert-butyl-N-(2-methylpyrazol-3-yl)sulfonyl-2-(2,4,6-trimethylphenoxy)pyridine-3-carboxamide]", "values": [{"measurement": "EC30", "value": "+++ (“+++” means <3 uM)"}]}, {"smiles": "CC(C)COc1cc(F)cc(-c2ccc(C(=O)NS(=O)(=O)c3ccn[nH]3)c(N3CCC[C@@H](c4ccccc4)C3)n2)c1", "note": "[Compound 912, 6-(3-fluoro-5-isobutoxy-phenyl)-2-[(3S)-3-phenyl-1-piperidyl]-N-(1H-pyrazol-5-ylsulfonyl)pyridine-3-carboxamide]", "values": [{"measurement": "EC30", "value": "+++ (“+++” means <3 uM)"}]}]}
